Source: PMC11649909 (Nature Communications, 2024)
Substitutions are numbered along the chain they refer to.

Columns and labels:
Experiment in all cases: SPR
Type in all cases: binding
ADIPOR2 R335A = molecular target: T1, ADIPOR2 R335A (Homo sapiens, UniProt Q86V24, R335A)
T1 sequence (Q86V24 1-386 R335A): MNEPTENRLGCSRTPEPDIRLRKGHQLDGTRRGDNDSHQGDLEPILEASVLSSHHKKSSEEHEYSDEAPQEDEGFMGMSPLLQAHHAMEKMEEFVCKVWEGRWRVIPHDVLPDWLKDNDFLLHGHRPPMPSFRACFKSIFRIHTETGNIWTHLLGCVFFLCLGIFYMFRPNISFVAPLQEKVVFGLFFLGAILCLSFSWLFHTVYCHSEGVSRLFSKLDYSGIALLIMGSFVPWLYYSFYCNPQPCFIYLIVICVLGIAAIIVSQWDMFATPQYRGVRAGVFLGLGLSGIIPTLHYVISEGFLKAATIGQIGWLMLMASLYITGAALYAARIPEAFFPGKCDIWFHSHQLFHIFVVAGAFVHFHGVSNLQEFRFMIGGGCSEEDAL

ADIPOR2 R331A = molecular target: T2, ADIPOR2 R331A (Homo sapiens, UniProt Q86V24, R331A)
T2 sequence (Q86V24 1-386 R331A): T1 sequence (Q86V24 1-386 R335A) with R331A, A335R

[1] = molecular target: T3, ADIPOR2 (adiponectin receptor 2) (Homo sapiens, UniProt Q86V24)
T3 sequence (Q86V24 1-386): T1 sequence (Q86V24 1-386 R335A) with A335R

Kd (ADIPOR2 R335A): 50.1 µM
Kd (ADIPOR2 R331A): 9.92 µM
Kd [1]: 1.99 µM
SMILES: COc1cc(C(=O)OCCCCNC(=N)N)cc(OC)c1O [SCM-198]
